Holding throughout (test): microbe, parasite or virus in culture
Assay type in all cases: cell-based
Settings in all cases: Mycobacterium tuberculosis

Test [1] deals with M. tb H37Rv IR (isoniazid resistant).
Test [2] relates to M. tb H37Rv ER (ethambutol resistant).
The subject of test [3] is M. tb H37Rv SR (streptomycin resistant).
For test [4], the system named is M. tb H37Rv RR (rifampicin resistant).

In brackets after ≈: the same amount, converted by molar mass.

For `CCOC(=O)c1ccc2c(c1)[n+]([O-])c(C(C)=O)c(C(F)(F)F)[n+]2[O-]` [Compound T-006], the MIC in test [1] is 1.25 µg/mL (≈ 3.63 µM); in test [2], 1.25 µg/mL (≈ 3.63 µM); in test [3] it was 5 µg/mL (≈ 14.5 µM); in test [4], 1.25 µg/mL (≈ 3.63 µM).
On to `CCOC(=O)c1ccc2c(c1)[n+]([O-])c(C(=O)c1cccs1)c(C(F)(F)F)[n+]2[O-]` [Compound T-011], for which the MIC is less than 0.31 µg/mL in test [1], less than 0.31 µg/mL in test [2], 0.625 µg/mL (≈ 1.52 µM) in test [3] and less than 0.31 µg/mL in test [4].
As for `COC(=O)c1ccc2c(c1)[n+]([O-])c(C(=O)c1ccccc1)c(C(F)(F)F)[n+]2[O-]` [Compound T-018], the MIC in test [1] stood at 0.62 µg/mL (≈ 1.58 µM); in test [2], 0.62 µg/mL (≈ 1.58 µM); in test [3], 1.25 µg/mL (≈ 3.19 µM); in test [4] it was 0.625 µg/mL (≈ 1.59 µM).
For the compound `COC(=O)c1ccc2c(c1)[n+]([O-])c(C(=O)OC)c(C)[n+]2[O-]` [Compound T-022], the MIC in test [1] is 0.62 µg/mL (≈ 2.12 µM); in test [2] it was 0.62 µg/mL (≈ 2.12 µM); in test [3] it was 0.625 µg/mL (≈ 2.14 µM); in test [4], less than 0.31 µg/mL.
Regarding `CC(C)OC(=O)c1ccc2c(c1)[n+]([O-])c(C(=O)c1cccs1)c(C(F)(F)F)[n+]2[O-]` [Compound T-069], the MIC in test [1] worked out at 0.62 µg/mL (≈ 1.45 µM); in test [2] it was 1.25 µg/mL (≈ 2.93 µM); in test [3], 1.25 µg/mL (≈ 2.93 µM); in test [4], 1.25 µg/mL (≈ 2.93 µM).
`CC(C)OC(=O)c1ccc2c(c1)[n+]([O-])c(C(=O)C(C)C)c(C(F)(F)F)[n+]2[O-]` [Compound T-085]: the MIC in test [1] is less than 0.31 µg/mL; in test [2] it was less than 0.31 µg/mL; in test [3] it was 1.25 µg/mL (≈ 3.24 µM); in test [4], 0.625 µg/mL (≈ 1.62 µM).
Regarding `CCCOC(=O)c1ccc2c(c1)[n+]([O-])c(C(=O)OC)c(C)[n+]2[O-]` [Compound T-088], the MIC is 0.62 µg/mL (≈ 1.94 µM) in test [1], less than 0.31 µg/mL in test [2], 0.625 µg/mL (≈ 1.95 µM) in test [3] and less than 0.31 µg/mL in test [4].
Take `CCCOC(=O)c1ccc2c(c1)[n+]([O-])c(C(=O)c1cccs1)c(C(F)(F)F)[n+]2[O-]` [Compound T-089]: the MIC in test [1] is less than 0.31 µg/mL; in test [2], 0.625 µg/mL (≈ 1.47 µM); in test [3] it was 1.25 µg/mL (≈ 2.93 µM); in test [4], 1.25 µg/mL (≈ 2.93 µM).
For `CO[C@H]1/C=C/O[C@@]2(C)Oc3c(C)c(O)c4c(O)c(c(/C=N/N5CCN(C)CC5)c(O)c4c3C2=O)NC(=O)/C(C)=C\C=C\[C@H](C)[C@H](O)[C@@H](C)[C@@H](O)[C@@H](C)[C@H](OC(C)=O)[C@@H]1C` [RMP, rifampicin, reference compound], the MIC in test [1] is less than 0.06 µg/mL; in test [2], less than 0.06 µg/mL; in test [3], less than 0.06 µg/mL; in test [4] it was more than 2 µg/mL.

Values taken from article PMC6099706, “Anti-Mycobacterium tuberculosis Activity of Esters of Quinoxaline 1,4-Di-N-Oxide” (Molecules : A Journal of Synthetic Chemistry and Natural …, 2018).
